Test results published in patent publication US20250382269A1 (CFD Research Corporation, priority 2019, published 2025).
Several values for one entry are separate records, joined by “and”; a condition that tells them apart may be missing. Equal values may be shown once.

Assay: Toxicity study in mice, body weight over 7 days
Format: in vivo, Balb/c mice
Details: for toxicity in mice (body weight over 7 days): 6-week-old Balb/c mice, vehicle 40% PEG300 in 0.9% NaCl
Description: The vehicle is 40% PEG300 solution in 0.9% NaCl. […] Thus, the compounds are useful for in vivo antimicrobial administration.

[1] = IP 0.1 mg/kg, Day 0, individual animals, 0.1 mg/kg
[2] = IP 0.1 mg/kg, Day 1, individual animals, 0.1 mg/kg
[3] = IP 0.1 mg/kg, Day 2, individual animals, 0.1 mg/kg
[4] = IP 0.1 mg/kg, Day 3, individual animals, 0.1 mg/kg
[5] = IP 0.1 mg/kg, Day 4, individual animals, 0.1 mg/kg
[6] = IP 0.1 mg/kg, Day 5, individual animals, 0.1 mg/kg
[7] = IP 0.1 mg/kg, Day 6, individual animals, 0.1 mg/kg
[8] = IP 0.1 mg/kg, Day 7, individual animals, 0.1 mg/kg
[9] = IP 1 mg/kg, Day 0, individual animals, 1 mg/kg
[10] = IP 1 mg/kg, Day 1, individual animals, 1 mg/kg
[11] = IP 1 mg/kg, Day 2, individual animals, 1 mg/kg
[12] = IP 1 mg/kg, Day 3, individual animals, 1 mg/kg
[13] = IP 1 mg/kg, Day 4, individual animals, 1 mg/kg
[14] = IP 1 mg/kg, Day 5, individual animals, 1 mg/kg
[15] = IP 1 mg/kg, Day 6, individual animals, 1 mg/kg
[16] = IP 1 mg/kg, Day 7, individual animals, 1 mg/kg
[17] = IP 10 mg/kg, Day 0, individual animals, 10 mg/kg
[18] = IP 10 mg/kg, Day 1, individual animals, 10 mg/kg
[19] = IP 10 mg/kg, Day 2, individual animals, 10 mg/kg
[20] = IP 10 mg/kg, Day 3, individual animals, 10 mg/kg
[21] = IP 10 mg/kg, Day 4, individual animals, 10 mg/kg
[22] = IP 10 mg/kg, Day 5, individual animals, 10 mg/kg
[23] = IP 10 mg/kg, Day 6, individual animals, 10 mg/kg
[24] = IP 10 mg/kg, Day 7, individual animals, 10 mg/kg

| SMILES | toxicity in mice (body weight over 7 days) | Animal body weight [1] | Animal body weight [2] | Animal body weight [3] | Animal body weight [4] | Animal body weight [5] | Animal body weight [6] | Animal body weight [7] | Animal body weight [8] | Animal body weight [9] | Animal body weight [10] | Animal body weight [11] | Animal body weight [12] | Animal body weight [13] | Animal body weight [14] | Animal body weight [15] | Animal body weight [16] | Animal body weight [17] | Animal body weight [18] | Animal body weight [19] | other results |
| --- | --- | --- | --- | --- | --- | --- | --- | --- | --- | --- | --- | --- | --- | --- | --- | --- | --- | --- | --- | --- | --- |
| Oc1ccccc1Sc1c[nH]c2ccc(Br)cc12 [Compound 174AI, 2-((5-bromo-1H-indol-3-yl)thio)phenol] | did not have significant toxicity | 0.023 kg (2×) and 0.022 kg | 0.022 kg (2×) and 0.021 kg | 0.023 kg and 0.022 kg and 0.021 kg | 0.024 kg and 0.022 kg (2×) | 0.024 kg and 0.022 kg (2×) | 0.024 kg and 0.022 kg (2×) | 0.024 kg and 0.022 kg (2×) | 0.023 kg (2×) and 0.022 kg | 0.022 kg and 0.024 kg and 0.026 kg | 0.023 kg and 0.024 kg and 0.026 kg | 0.023 kg and 0.025 kg and 0.026 kg | 0.023 kg and 0.025 kg and 0.027 kg | 0.022 kg and 0.025 kg and 0.026 kg | 0.022 kg and 0.025 kg and 0.026 kg | 0.022 kg and 0.024 kg and 0.026 kg | 0.022 kg and 0.024 kg and 0.026 kg | 0.022 kg and 0.026 kg and 0.024 kg | 0.021 kg and 0.024 kg and 0.022 kg | 0.022 kg and 0.024 kg and 0.023 kg | Animal body weight [20]: 0.022 kg and 0.025 kg and 0.023 kg; Animal body weight [21]: 0.022 kg and 0.026 kg and 0.024 kg; Animal body weight [22]: 0.023 kg and 0.026 kg and 0.024 kg; Animal body weight [23]: 0.022 kg and 0.026 kg and 0.024 kg; Animal body weight [24]: 0.022 kg and 0.026 kg and 0.023 kg |
| Fc1ccccc1Sc1c[nH]c2ccc(Br)cc12 [Compound 174AU, 5-bromo-3-((2-fluorophenyl)thio)-1H-indole] | did not have significant toxicity | 0.026 kg and 0.023 kg and 0.024 kg | 0.024 kg and 0.022 kg and 0.023 kg | 0.025 kg and 0.022 kg and 0.023 kg | 0.025 kg and 0.022 kg and 0.023 kg | 0.025 kg and 0.022 kg and 0.023 kg | 0.025 kg and 0.023 kg and 0.024 kg | 0.025 kg and 0.022 kg and 0.023 kg | 0.024 kg and 0.022 kg and 0.023 kg | 0.026 kg and 0.022 kg and 0.025 kg | 0.025 kg (2×) and 0.022 kg | 0.026 kg and 0.022 kg and 0.025 kg | 0.026 kg and 0.022 kg and 0.025 kg | 0.026 kg and 0.023 kg and 0.025 kg | 0.026 kg and 0.023 kg and 0.025 kg | 0.025 kg (2×) and 0.023 kg | 0.026 kg and 0.024 kg and 0.025 kg | 0.024 kg (2×) and 0.025 kg | 0.023 kg (2×) and 0.024 kg | 0.023 kg (2×) and 0.025 kg | Animal body weight [20]: 0.024 kg and 0.023 kg and 0.025 kg; Animal body weight [21]: 0.023 kg (2×) and 0.025 kg; Animal body weight [22]: 0.023 kg (2×) and 0.026 kg; Animal body weight [23]: 0.022 kg and 0.023 kg and 0.026 kg; Animal body weight [24]: 0.022 kg and 0.023 kg and 0.026 kg |
